Earlier results on 1 compound are cited in patent US20230020217A1, “HEPES-CONTAINING MEDIUM” (AJINOMOTO CO., INC., priority 2020, published 2023).

The conditions of the data set: when exposed to light for a long time (Zigler et al. 1985).

Molecules are shown by their SMILES.

Turning to `O=S(=O)(O)CCN1CCN(CCO)CC1` [HEPES, 4-(2-hydroxyethyl)-1-piperazineethanesulfonic acid], the toxicity result is “toxicity derived from hydrogen peroxide”.
